# Measured values taken from patent US10272261B2, “Methods and compositions for treating ocular glaucoma” (Massachusetts Eye and Ear Infirmary, priority 2004, dated 2019).
# How the values were obtained:
# Type in all cases: in vivo, mouse
# DBA/2J glaucoma mice = experiment: IOP measurement (applanation tonometer) after transscleral ciliary body PDT in DBA/2J glaucoma mice
# Protocol: All experiments were performed in accordance with the Association for Research in Vision and Ophthalmology Statement for the Use of Animals in Ophthalmic and Vision Research. C57BL/6 female mice aged 3 months (n=20) were used as the normal model. DBA/2J female mice aged 8 months (n=20) were used as the glaucoma mouse model. One eye of each animal was treated and the other eye served as a control (for both the normal and glaucoma models). Animals were housed in covered cages, were fed with a standard rodent diet ad libitum and were kept under constant 12 hour light-12 hour dark cycles. For general anesthesia, a mixture of ketamine (100 mg/kg) and xylazine (9 mg/kg) was administered intraperitoneally.
# DBA/2J mice spontaneously develop essential iris atrophy, pigment dispersion, and glaucomatous changes. The IOP becomes elevated in most mice by the age of 9 months, which can be followed by ganglion cell loss, optic nerve atrophy and optic nerve cupping. As glaucoma developed, ganglion cell loss and mild cupping of the optic nerve were present in some animals by 11 months and in the majority of mice by the age of 22 months.
# Verteporfin photosensitizer (Novartis Ophthalmics, Inc., Duluth, Ga.) was used in these experiments. The mice were systemically anesthetized prior to PDT, and the photosensitizer dye was administered to the animals by tail vain injections using a 30 G needle 5 minutes before laser irradiation. A dose of 2.0 or 4.0 mg/kg was used in C57BL/6 normal mice and of 1.0 mg/kg was used in DBA/2J mice. The laser irradiation to the ciliary body was applied transsclerally using a 600 μm optical fiber at a wavelength of light of 689 nm from a Diode Laser, with an irradiance of 1800 mW/cm^2 and a fluence of 100 J/cm^2 (Lumenis, Santa Clara, Calif.). Transscleral irradiation of the ciliary body was performed with applications for 360 degrees of the corneoscleral limbus in C57BL/6 normal mice and for 180 degrees in DBA/2J mice. In the C57BL/6 and DBA/2J mice, 16 and 8 spots, respectively, were irradiated to overlap with one another. In the eyes prepared for lectin labeling and terminal deoxynucleotide transferase-mediated nick end labeling (TUNEL) staining (a measure of apoptosis), PDT was performed in C57BL/6 mice to cover 180 degrees of the ciliary body at a 4.0 mg/kg verteporfin dose to compare the degree of staining between irradiated area and non-irradiated area. Retreatment was performed in C57BL/6 normal mice which had been treated with 2.0 mg/kg of verteporfin after the IOP measurement at post-PDT day 7 using the same light parameters.
# The IOP was measured using a previously reported applanation tonometer (Ahamed et al. (2003) IOVS 44:ARVO E-Abstract 3336) (n=12 in DBA/2J mice, n=5 in C57BL/6 mice at each dose). The principle of applanation tonometry employs fiber-optic gauges which are designed around a Fabry-Perot interferometer (FPI) (FTI-10; FISO Technologies, Inc., Quebec, Canada). FPI consists of two mirrors facing each other, the space separating the mirrors being called the cavity length. Light reflected in the FPI is wavelength-modulated in exact accordance with the cavity length. […]
# IOP was measured under general anesthesia. […]
# As soon as the mice were anesthetized sufficiently, they were placed on a surgical platform. When the pressure sensor applanated a central area of mouse cornea under a dissecting microscope, the IOP (psi) was measured by the device 10 times automatically. […]
# ciliary body [1] = experiment: Histology (light and electron microscopy) of ciliary body after PDT in DBA/2J mice; conditions: 1.0 mg/kg
# Protocol: Eyes were enucleated at 6 hours (only DBA/2J), at 1 and 7 days after treatment, and at the end of IOP follow up (8 weeks after treatment)(n=2 in each group at each time point) and processed for light and transmission electron microscopic examination. The eyes were bisected behind the limbus, placed in modified Karnovsky's fixative at 4° C. overnight, and then transferred to 0.1 M cacodylate buffer at pH 7.4. Ciliary body specimens were observed by stereomicroscopy at 1 day after PDT for normal mice in the 4.0 mg/kg dose-treated group. Tissues were postfixed in aqueous 2% osmium tetroxide, stained en bloc with Uranyl Acetate, dehydrated in graded ethanols, and embedded in Epon. One-micrometer-thick sections were stained with 0.5% toluidine blue in borate buffer for light microscopy and examined using a photomicroscope (Leica Microsystems, Wetzlar, Germany). Thin sections were stained with aqueous uranyl acetate, and Sato's lead stain, and examined with a transmission electron microscope (CM 10; Phillips, Eindhoven, The Netherlands).
# ciliary body [2] = experiment: Lectin labeling of vascular endothelial cells and TUNEL staining after PDT in C57BL/6 normal mice; conditions: 4.0 mg/kg, 180 degrees; 1 day after PDT
# Protocol: (§1) Lectin labeling of vascular endothelial cells and TUNEL staining (to examine apoptotic cells) was performed 1 day after PDT in C57BL16 normal mice (n=2). In DBA/2J mice, only TUNEL staining was performed. PDT was performed to cover 180 degrees of the ciliary body at a dose of 4.0 mg/kg (C57BL/6) and 1.0 mg/kg (DBA/2J) verteporfin to compare the degree of staining between irradiated area and non-irradiated area. Non-operated fellow eyes (n=2) were used as controls. After sufficient anesthesia, the animals were perfused with 8 mL phosphate buffered saline (PBS) administered via a catheter in the left ventricle. After PBS perfusion, fluorescein-isothiocyanate (FITC)-coupled Concanavalin A lectin (20 μg/mL in PBS, pH 7.4, 5 mg/kg BW)(Vector Labs, Burlingame, Calif.) was then perfused to stain vascular endothelial cells. Four percent paraformaldehyde in 0.1 PBS (pH 7.4) was perfused following PBS perfusion to remove residual unbound lectin. Enucleated eyes were fixed in 4% paraformaldehyde in 0.1 PBS overnight and were immersed in graded sucrose in 0.1 PBS. The samples were embedded in optimal cutting temperature (OCT) compound (Tissue-Tek, Tokyo, Japan), and sectioned vertically at 10-μm. TUNEL staining was performed according to the manufacturer's protocol (Fluorescein In Situ Apoptosis Detection Kit; CHEMICON International, Temecula, Calif.) to detect retinal cell death induced by PDT. […]
# ciliary body [3] = experiment: TUNEL staining after PDT in DBA/2J mice; conditions: 1.0 mg/kg, 180 degrees; 1 day after PDT
# Protocol: as §1
# DBA/2J mice = experiment: Ocular complications of ciliary body PDT in DBA/2J mice (preliminary and changed parameters)
substance,measurement,setting,value
verteporfin,mean IOP of treated eyes,"DBA/2J glaucoma mice; 1.0 mg/kg i.v., 689 nm, 100 J/cm^2, 180 degrees, 1 day after treatment",15.9±5.7 mmHg
same,difference of mean IOP between fellow control eyes and treated eyes,"DBA/2J glaucoma mice; 1.0 mg/kg, 180 degrees, 1 day after PDT",no significant difference
same,mean IOP of treated eyes,"DBA/2J glaucoma mice; 1.0 mg/kg, 180 degrees, 3 days after PDT",9.5±3.4 mmHg
same,reduction of mean IOP of treated eyes compared to fellow control eyes,"DBA/2J glaucoma mice; 1.0 mg/kg, 180 degrees, 3 days after PDT, p<0.05",40.8%
same,IOP reduction,"DBA/2J glaucoma mice; 1.0 mg/kg, treatment of 180°",significant reduction of IOP
same,ciliary body histological findings,ciliary body [1]; 8 weeks after PDT,"ciliary body blood vessels were recanalized, and edema had disappeared"
same,ciliary body histological findings,ciliary body [1]; 6 hours after PDT,most ciliary body blood vessels in the treated eyes were thrombosed
same,ciliary body histological findings,ciliary body [1]; 1 day after PDT,"most ciliary body blood vessels were still thrombosed, and the ciliary epithelium and stroma were severely damaged and edematous"
same,ciliary body histological findings,ciliary body [1]; 7 days after PDT,Some of ciliary body blood vessels were still thrombosed
same,TUNEL positive (apoptotic) cells,ciliary body [2],some TUNEL positive cells in the ciliary body and retina of the PDT treated eyes
same,lectin staining of ciliary body vessels on the treated side,ciliary body [2],showed little staining with lectin
same,TUNEL positive (apoptotic) cells,ciliary body [3],Many TUNEL positive cells were seen in the ciliary process in both the treated and untreated sides of the treated eye
same,ocular complications,"DBA/2J mice; 2 mg/kg, irradiated in 360 degrees of the corneoscleral limbus (preliminary)","severe damage such as corneal edema, hyphema, and corneal neovascularization occurred with high frequency"
same,ocular complications,"DBA/2J mice; after change of parameters (1.0 mg/kg, 180 degrees)",these complications were not seen
